According to patent publication US20190292189A1, “LIM KINASE INHIBITORS” (VIRONGY, LLC, priority 2016, published 2019):

Assays:
P450 2C9 = P450 2C9 (Homo sapiens, UniProt P11712); assay: P450 inhibition at 10 μM; format: in vitro ADME
ROCK-I = ROCK-I (Homo sapiens, UniProt Q13464); assay: ROCK-I biochemical counter-screen; details: Table 6; read-out: Biochemical Inhibition IC50 (nM) ROCK-I
[1] = Microsomal stability, human liver microsomes; format: in vitro ADME
P450 2D6 = P450 2D6 (Homo sapiens, UniProt P10635); assay: P450 inhibition at 10 μM; format: in vitro ADME
[2] = tested on: p-cofilin in PC-3 prostate cancer cell lines; assay: Cofilin phosphorylation Western blot in PC-3 cells stimulated by HGF; format: cell-based; details: HGF-stimulated PC-3 cells; 50 nM
Method: PC3 cells were cultured at a density of 0.5×10^6 cells/mL in 60 mm culture dishes in 10% FBS RPMI1640 media. Then, the cells were treated with DMSO and the indicated concentration of Limk inhibitors. After incubating for 24 h, the cells were rinsed with ice-cold PBS twice and collected by spinning down at 4° C. in 10,000 rpm for 5 min Cellular lysates were prepared by suspending cells in SDS sample buffer, 120 mmol/L Tris, 4% SDS, 20% glycerol, 0.1 mg/mL bromophenol blue, and 100 mmol/L DTT (pH 6.8). After brief sonication, the lysates were heated at 95° C. for 5 minutes. The cell lysates were separated by 12% SDS-PAGE and transferred to Immobilon-P membranes (Millipore Corp) Immunostaining was done using antibodies specific for phospho-Cofilin (Cell Signaling, #3313) and β-Actin (GeneScript, #A00702) antibodies and the corresponding second antibodies for whole immunoglobulins from mouse or rabbit (Amersham Biosciences). Immunoreactive proteins were detected by chemoluminescence using the Pierce ECL Western Blotting Substrate (Thermo Scientific). We quantified the actual levels of proteins by using the Multigauge ver 3.0 software (Fujifilm). The gels were stained with Coomassie Brilliant Blue R-250 (0.25%) for 1 hour and then destained (all solutions from Bio-Rad) to check the loading amount of protein samples on the gels.

[3] = tested on: cofilin serine 3 phosphorylation in CEM-SS T cells; assay: Western blot of cofilin serine 3 phosphorylation in CEM-SS T cells (time course); format: cell-based, human; details: 100 μM
Method: (§1) FIG. 10. Chemical and Biochemical characterization of R10015. a, Chemical structure of R10015 and its docking into the crystal structure of LIMK1 (PDB ID 3S95, Chain A). […] CEM-SS T cells treated with R10015 (100 μM) for a time course, and the phosphorylation of cofilin, LIMK, and PAK1/2 were measured by Western Blot. Levels of each protein or GAPDH were also measured for loading control. d, R10015 inhibits Jurkat T cell chemotaxis in responding to SDF-1. e, R10015. f, R10015 inhibits chemotactic actin activity. Resting CD4 T cells were treated with R10015, and then exposed to SDF-1 for a time course. Actin polymerization were measured by FITC-phalloidin staining. g, the relative intensity of F-actin staining was also plotted.
One million cells were lysed in NuPAGE LDS Sample Buffer (Invitrogen), separated by SDS-PAGE, and then transferred onto nitrocellulose membranes (Invitrogen). The membranes were washed in TBST for 3 min and then blocked for 30 min at room temperature with Starting Block blocking buffer (Pierce). For probing with different antibodies, blots were incubated with rabbit anti-LIMK1 antibodies (Cell Signaling), with rabbit anti-p-coflin antibodies (Cell Signaling) or with a mouse anti-PAK1/2 antibody (Cell Signaling). These antibodies were diluted in 2.5% milk/TBST and rocked overnight at 4° C. […]

[4] = tested on: RVFV (rift valley fever virus); format: cell-based; details: Vero cells
Limk1 = Limk1 (Homo sapiens, UniProt P53667); assay: Kinase profiling at 1 μM (Reaction Biology); format: biochemical; set-up: His; purchased Reaction Biology Corporation; host or cells: insect cells; details: ATP 10 μM
Method: Profiling was carried out at Reaction Biology Corporation following a protocol described at its website: http://www.reactionbiology.com/webapps/site/. The % data were the average from two determinations. ATP concentration used: 10 μM; Staurosporine was used as the positive control.
Biochemical assays for all Limk inhibitors and kinase profiling were carried out in Reaction Biology Corporation and followed the protocols described on its website. […] Compounds were tested at 1 μM with duplicate experiments in profiling assays. […] Reactions were carried out at 10 μM ATP, 1 μM substrate cofilin, and 50 nM Limk1 (final concentrations).

EBOV (Zaire ebolavirus) = format: cell-based; details: HFF-1 cells
Rev-CEM-GFP-Luc = details: all concentrations tested (up to 200 μM)
HIV-1(VSVG) = format: cell-based
resting CD4 T cells [5] = assay: Surface staining of CD25 and CD69 (T cell activation); format: cell-based, human; details: CD3/CD28 beads
HIV-1(AD8) = format: cell-based; details: non-toxic dosages
resting CD4 T cells [6] = assay: SDF-1-mediated actin polymerization, FITC-phalloidin staining; format: cell-based, human; details: pre-treatment of resting CD4 T cells
Method: as §1
F-actin staining using phalloidin-FITC (Sigma) was carried out as described previously. Briefly, each staining was carried out using 1×10^6 cells. Cells were pelleted, fixed, and permeabilized with CytoPerm/Cytofix buffer (BD Biosciences) for 20 min at room temperature and washed with cold Perm/Wash buffer (BD Biosciences) twice, followed by staining with 5 μl of 0.3 mM FITC-labeled phalloidin (Sigma) for 30 min on ice in the dark. Cells were washed twice with cold Perm/Wash buffer, then were resuspended in 1% paraformaldehyde, and analyzed on a FACSCalibur (BD Biosciences).

[7] = tested on: VEEV (venezuelan equine encephalitis virus); format: cell-based; details: Vero cells

Sequence of Limk1 (P53667 285-638): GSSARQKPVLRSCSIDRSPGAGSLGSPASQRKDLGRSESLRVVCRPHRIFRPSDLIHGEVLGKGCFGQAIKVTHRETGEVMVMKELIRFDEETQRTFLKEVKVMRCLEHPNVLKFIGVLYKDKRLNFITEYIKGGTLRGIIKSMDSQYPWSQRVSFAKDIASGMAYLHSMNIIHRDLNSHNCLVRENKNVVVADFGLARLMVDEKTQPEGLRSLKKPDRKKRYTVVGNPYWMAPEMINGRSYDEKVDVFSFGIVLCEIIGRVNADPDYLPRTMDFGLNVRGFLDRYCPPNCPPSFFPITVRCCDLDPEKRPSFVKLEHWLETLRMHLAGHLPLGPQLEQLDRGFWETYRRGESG
Sequence of ROCK-I (Q13464 whole entry, species assumed): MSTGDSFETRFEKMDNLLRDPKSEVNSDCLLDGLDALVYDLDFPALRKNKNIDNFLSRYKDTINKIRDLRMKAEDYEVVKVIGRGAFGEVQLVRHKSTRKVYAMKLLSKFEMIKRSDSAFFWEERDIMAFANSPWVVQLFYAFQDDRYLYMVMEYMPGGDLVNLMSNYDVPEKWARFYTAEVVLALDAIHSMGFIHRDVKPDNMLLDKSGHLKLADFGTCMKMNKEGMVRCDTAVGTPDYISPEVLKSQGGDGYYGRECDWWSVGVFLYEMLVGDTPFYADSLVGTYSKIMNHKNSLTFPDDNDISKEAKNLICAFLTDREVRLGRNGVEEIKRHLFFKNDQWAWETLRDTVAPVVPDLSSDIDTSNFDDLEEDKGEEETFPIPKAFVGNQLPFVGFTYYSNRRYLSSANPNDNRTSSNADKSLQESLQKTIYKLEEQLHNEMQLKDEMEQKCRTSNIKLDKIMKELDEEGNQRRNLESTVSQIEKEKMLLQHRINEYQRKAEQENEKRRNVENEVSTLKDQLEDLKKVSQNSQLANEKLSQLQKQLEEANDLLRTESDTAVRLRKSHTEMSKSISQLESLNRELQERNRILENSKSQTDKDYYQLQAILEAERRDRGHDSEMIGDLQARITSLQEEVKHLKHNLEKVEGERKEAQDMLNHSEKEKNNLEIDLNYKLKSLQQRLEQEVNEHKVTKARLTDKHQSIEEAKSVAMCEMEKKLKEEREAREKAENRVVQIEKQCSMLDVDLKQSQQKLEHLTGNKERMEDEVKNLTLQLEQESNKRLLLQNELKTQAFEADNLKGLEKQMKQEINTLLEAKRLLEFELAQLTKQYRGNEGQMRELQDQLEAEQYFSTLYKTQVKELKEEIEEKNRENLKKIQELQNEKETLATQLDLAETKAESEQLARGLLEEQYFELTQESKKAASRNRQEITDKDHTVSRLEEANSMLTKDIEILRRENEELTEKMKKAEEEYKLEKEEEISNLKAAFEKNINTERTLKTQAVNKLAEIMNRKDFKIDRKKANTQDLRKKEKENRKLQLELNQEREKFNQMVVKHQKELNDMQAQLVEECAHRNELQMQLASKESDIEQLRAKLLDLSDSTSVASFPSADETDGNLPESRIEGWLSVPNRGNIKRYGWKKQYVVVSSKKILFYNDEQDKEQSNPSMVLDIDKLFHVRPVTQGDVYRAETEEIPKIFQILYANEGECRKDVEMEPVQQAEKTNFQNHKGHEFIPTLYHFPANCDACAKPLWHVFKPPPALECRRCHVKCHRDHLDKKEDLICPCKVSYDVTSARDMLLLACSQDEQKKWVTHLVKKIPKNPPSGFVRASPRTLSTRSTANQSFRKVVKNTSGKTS
Sequence of P450 2C9 (P11712 whole entry): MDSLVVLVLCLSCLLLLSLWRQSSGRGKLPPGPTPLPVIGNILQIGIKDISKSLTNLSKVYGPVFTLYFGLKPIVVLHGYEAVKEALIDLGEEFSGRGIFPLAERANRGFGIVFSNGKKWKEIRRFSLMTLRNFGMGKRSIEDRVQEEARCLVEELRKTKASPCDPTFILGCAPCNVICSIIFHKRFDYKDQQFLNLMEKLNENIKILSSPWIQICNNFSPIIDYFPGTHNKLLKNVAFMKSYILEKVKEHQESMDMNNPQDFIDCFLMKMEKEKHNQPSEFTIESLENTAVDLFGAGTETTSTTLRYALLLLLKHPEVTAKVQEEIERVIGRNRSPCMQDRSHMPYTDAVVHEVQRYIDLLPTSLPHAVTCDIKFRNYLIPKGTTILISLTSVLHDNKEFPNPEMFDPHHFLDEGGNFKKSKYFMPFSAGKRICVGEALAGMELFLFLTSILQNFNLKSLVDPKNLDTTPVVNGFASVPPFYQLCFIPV
Sequence of P450 2D6 (P10635 whole entry): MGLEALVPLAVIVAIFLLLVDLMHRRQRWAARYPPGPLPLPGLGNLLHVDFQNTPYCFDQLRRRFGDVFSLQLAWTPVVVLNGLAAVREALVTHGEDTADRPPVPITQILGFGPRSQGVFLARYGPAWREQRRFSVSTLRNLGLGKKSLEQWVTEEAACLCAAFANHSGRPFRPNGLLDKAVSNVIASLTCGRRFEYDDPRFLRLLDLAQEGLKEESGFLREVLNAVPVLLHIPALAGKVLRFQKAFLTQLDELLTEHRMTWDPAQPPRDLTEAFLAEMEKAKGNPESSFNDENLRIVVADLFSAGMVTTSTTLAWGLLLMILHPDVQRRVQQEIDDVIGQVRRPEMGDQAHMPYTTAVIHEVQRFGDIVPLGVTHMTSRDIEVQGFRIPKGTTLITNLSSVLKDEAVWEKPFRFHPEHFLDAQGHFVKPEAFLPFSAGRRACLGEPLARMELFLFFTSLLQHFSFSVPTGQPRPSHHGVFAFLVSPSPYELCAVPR

## Cc1c[nH]c2ncnc(-c3ccc(NC(=O)N(CCO)c4ccccc4)cc3)c12 [Compound 18b, 1-(2-Hydroxyethyl)-3-(4-(5-methyl-7H-pyrrolo[2,3-d]pyrimidin-4-yl)phenyl)-1-phenylurea]
P450 2C9
  P450 % inh. at 10 μM 2C9: 14%
ROCK-I
  IC50: 5540 nM
[1]
  Microsomal Stability t1/2 (min) Human: 87 min
P450 2D6
  P450 % inh. at 10 μM 2D6: 5%
[2]
  inhibition of cofilin phosphorylation in PC-3 cells (Western blot): significant inhibition

## COC(=O)c1ccc2[nH]c(C3CCN(c4ncnc5[nH]cc(Cl)c45)CC3)nc2c1 [Compound R10015, Methyl 2-(1-(5-chloro-7H-pyrrolo[2,3-d]pyrimidin-4-yl)piperidin-4-yl)-1Hbenzo[d]imidazole-5-carboxylate]
[3]
  cofilin serine 3 phosphorylation: drastic inhibition
[4]
  RVFV infection: inhibited
Limk1
  activity at 1 µM: 6.4%
EBOV (Zaire ebolavirus)
  EBOV infection: inhibited
Rev-CEM-GFP-Luc
  cytotoxicity: no detectable cytotoxicity
HIV-1(VSVG)
  inhibition of VSVG pseudotyped HIV: did not inhibit
Resting CD4 T cells [5]
  T cell activation (CD25 and CD69 surface staining): did not inhibit T cell activation
HIV-1(AD8)
  R5 viral infection of memory CD4 T cells: inhibition
Resting CD4 T cells [6]
  SDF-1-mediated actin polymerization: markedly depressed
[7]
  VEEV infection: inhibited
